The record followed here is PubChem BioAssay AID1259407 (Chemical Carcinogenesis Research Information System (CCRIS), 2018).

The source made the active and inactive calls. The rule behind the calls is not given here.

The subject of the data set is CCRIS mutagenicity, Ames/micronucleus/aberration tests. Description: CCRIS mutagenicity studies.
Where [1] appears, read: Test System: AMES SALMONELLA TYPHIMURIUM, Strain/Indicator: TA97, Metabolic Activation: NONE, Method: PREINCUBATION
Where [2] appears, read: Test System: AMES SALMONELLA TYPHIMURIUM, Strain/Indicator: TA98, Metabolic Activation: NONE, Method: PREINCUBATION
Setting [3] is: Test System: AMES SALMONELLA TYPHIMURIUM, Strain/Indicator: TA100, Metabolic Activation: NONE, Method: PREINCUBATION
[4] abbreviates: Test System: AMES SALMONELLA TYPHIMURIUM, Strain/Indicator: TA1535, Metabolic Activation: NONE, Method: PREINCUBATION

For the compound `Oc1c(Cl)c(Cl)cc(Cl)c1Cl`, the mutagenic call is “inactive; negative” (End Point: IN VITRO CHROMOSOMAL ABERRATIONS, Test System: CHINESE HAMSTER LUNG CELLS (CHL), Metabolic Activation: NONE); “active; positive (structural changes)” (End Point: IN VITRO CHROMOSOMAL ABERRATIONS, Test System: CHINESE HAMSTER LUNG CELLS (CHL), Metabolic Activation: RAT, LIVER, S-9, KC-400); “inactive; negative” (End Point: IN VITRO CHROMOSOMAL ABERRATIONS, Test System: CHINESE HAMSTER OVARY CELLS (CHO), Metabolic Activation: NONE); “active; positive (structural changes)” (End Point: IN VITRO CHROMOSOMAL ABERRATIONS, Test System: CHINESE HAMSTER OVARY CELLS (CHO), Metabolic Activation: RAT, LIVER, S-9, AROCLOR 1254); “inactive; negative” (Test System: AMES SALMONELLA TYPHIMURIUM, Strain/Indicator: TA97, Metabolic Activation: HAMSTER, LIVER, S-9, AROCLOR 1254 (10%), Method: PREINCUBATION); “inactive; negative” (Test System: AMES SALMONELLA TYPHIMURIUM, Strain/Indicator: TA97, Metabolic Activation: HAMSTER, LIVER, S-9, AROCLOR 1254 (30%), Method: PREINCUBATION). In addition, the mutagenic call under setting [1] is “inactive; negative”; the mutagenic call (Test System: AMES SALMONELLA TYPHIMURIUM, Strain/Indicator: TA97, Metabolic Activation: RAT, LIVER, S-9, AROCLOR 1254 (10%), Method: PREINCUBATION) is “inactive; negative”; the mutagenic call (Test System: AMES SALMONELLA TYPHIMURIUM, Strain/Indicator: TA97, Metabolic Activation: RAT, LIVER, S-9, AROCLOR 1254 (30%), Method: PREINCUBATION) was “inactive; negative”; the mutagenic call (Test System: AMES SALMONELLA TYPHIMURIUM, Strain/Indicator: TA98, Metabolic Activation: HAMSTER, LIVER, S-9, AROCLOR 1254 (10%), Method: PREINCUBATION) was “inactive; negative”; the mutagenic call (Test System: AMES SALMONELLA TYPHIMURIUM, Strain/Indicator: TA98, Metabolic Activation: HAMSTER, LIVER, S-9, AROCLOR 1254 (30%), Method: PREINCUBATION) was “inactive; negative”; the mutagenic call under setting [2] was “inactive; negative”. For the same compound, the mutagenic call runs as follows: (Test System: AMES SALMONELLA TYPHIMURIUM, Strain/Indicator: TA98, Metabolic Activation: RAT, LIVER, S-9, AROCLOR 1254 (10%), Method: PREINCUBATION) “inactive; negative”; (Test System: AMES SALMONELLA TYPHIMURIUM, Strain/Indicator: TA98, Metabolic Activation: RAT, LIVER, S-9, AROCLOR 1254 (30%), Method: PREINCUBATION) “inactive; negative”; (Test System: AMES SALMONELLA TYPHIMURIUM, Strain/Indicator: TA100, Metabolic Activation: HAMSTER, LIVER, S-9, AROCLOR 1254 (10%), Method: PREINCUBATION) “inactive; negative”; (Test System: AMES SALMONELLA TYPHIMURIUM, Strain/Indicator: TA100, Metabolic Activation: HAMSTER, LIVER, S-9, AROCLOR 1254 (30%), Method: PREINCUBATION) “inactive; negative”; under setting [3], “inactive; negative”; (Test System: AMES SALMONELLA TYPHIMURIUM, Strain/Indicator: TA100, Metabolic Activation: RAT, LIVER, S-9, AROCLOR 1254 (10%), Method: PREINCUBATION) “inactive; negative”. The mutagenic call by setting is: (Test System: AMES SALMONELLA TYPHIMURIUM, Strain/Indicator: TA100, Metabolic Activation: RAT, LIVER, S-9, AROCLOR 1254 (30%), Method: PREINCUBATION) “inactive; negative”; (Test System: AMES SALMONELLA TYPHIMURIUM, Strain/Indicator: TA1535, Metabolic Activation: HAMSTER, LIVER, S-9, AROCLOR 1254 (10%), Method: PREINCUBATION) “inactive; negative”; (Test System: AMES SALMONELLA TYPHIMURIUM, Strain/Indicator: TA1535, Metabolic Activation: HAMSTER, LIVER, S-9, AROCLOR 1254 (30%), Method: PREINCUBATION) “inactive; negative”; under setting [4], “inactive; negative”; (Test System: AMES SALMONELLA TYPHIMURIUM, Strain/Indicator: TA1535, Metabolic Activation: RAT, LIVER, S-9, AROCLOR 1254 (10%), Method: PREINCUBATION) “inactive; negative”; (Test System: AMES SALMONELLA TYPHIMURIUM, Strain/Indicator: TA1535, Metabolic Activation: RAT, LIVER, S-9, AROCLOR 1254 (30%), Method: PREINCUBATION) “inactive; negative”.

On to `CCCCCCCCS(=O)C(C)Cc1ccc2c(c1)OCO2` (centres undefined), for which the mutagenic call is “inactive; negative” (End Point: IN VITRO CHROMOSOMAL ABERRATIONS, Test System: CHINESE HAMSTER OVARY CELLS, Metabolic Activation: NONE) and “inactive; negative” (End Point: IN VITRO CHROMOSOMAL ABERRATIONS, Test System: CHINESE HAMSTER OVARY CELLS, Metabolic Activation: RAT, LIVER, S-9, AROCLOR 1254).

Consider `O=[N+]([O-])c1ccccc1CO`, for which the mutagenic call under setting [2] is “inactive; negative”; the mutagenic call under setting [3] was “inactive; negative”; the mutagenic call (Test System: AMES SALMONELLA TYPHIMURIUM, Strain/Indicator: TA100, Metabolic Activation: RAT, LIVER, S-9, AROCLOR 1254, Method: PREINCUBATION) was “inactive; negative”.

For `O=S(=O)(O)c1cc(S(=O)(=O)O)c2c(N=Nc3ccc(S(=O)(=O)O)c4ccccc34)c(O)ccc2c1`, the mutagenic call by setting is: (End Point: IN VIVO MICRONUCLEUS, Test System: BONE MARROW POLYCHROMATIC ERYTHROCYTES, Species: MOUSE, Strain/Sex: DDY/MALE, Route: IP) “inactive; negative”; under setting [2], “inactive; negative”; (Test System: AMES SALMONELLA TYPHIMURIUM, Strain/Indicator: TA98, Metabolic Activation: S-9, Method: PREINCUBATION) “inactive; negative”; under setting [3], “inactive; negative”; (Test System: AMES SALMONELLA TYPHIMURIUM, Strain/Indicator: TA100, Metabolic Activation: S-9, Method: PREINCUBATION) “inactive; negative”; (Test System: Mouse lymphoma, Strain/Indicator: L5178Y (tk+/tk-), Metabolic Activation: None, Method: Suspension/plate) “inactive; negative”. Besides, the mutagenic call is, setting by setting: (Test System: Mouse lymphoma, Strain/Indicator: L5178Y (tk+/tk-), Metabolic Activation: Rat, Liver, S-9, Aroclor 1254, Method: Suspension/plate) “inactive; inconclusive (previous evaluation negative)”; (Test System: UDS RODENT HEPATOCYTES, Strain/Indicator: THY INCORP, Metabolic Activation: NONE, Method: AUTORADIOGRAPHY) “inactive; negative”.

As to `CCCCCCC(C)OC(=O)C[S][Sn]([CH2]CCC)([S]CC(=O)OC(C)CCCCCC)[S]CC(=O)OC(C)CCCCCC` (centres undefined), the mutagenic call by setting is: (Test System: AMES SALMONELLA TYPHIMURIUM, Strain/Indicator: TA97, Metabolic Activation: HAMSTER, LIVER, S-9, AROCLOR 1254 (10 OR 30%), Method: PREINCUBATION) “inactive; negative”; under setting [1], “inactive; negative”; (Test System: AMES SALMONELLA TYPHIMURIUM, Strain/Indicator: TA97, Metabolic Activation: RAT, LIVER, S-9, AROCLOR 1254 (10 OR 30%), Method: PREINCUBATION) “inactive; negative”; (Test System: AMES SALMONELLA TYPHIMURIUM, Strain/Indicator: TA98, Metabolic Activation: HAMSTER, LIVER, S-9, AROCLOR 1254 (10 OR 30%), Method: PREINCUBATION) “inactive; negative”; under setting [2], “inactive; negative”; (Test System: AMES SALMONELLA TYPHIMURIUM, Strain/Indicator: TA98, Metabolic Activation: RAT, LIVER, S-9, AROCLOR 1254 (10 OR 30%), Method: PREINCUBATION) “inactive; negative”. Moreover, the mutagenic call was “inactive; negative” (Test System: AMES SALMONELLA TYPHIMURIUM, Strain/Indicator: TA100, Metabolic Activation: HAMSTER, LIVER, S-9, AROCLOR 1254 (10 OR 30%), Method: PREINCUBATION); “inactive; negative” under setting [3]; “inactive; negative” (Test System: AMES SALMONELLA TYPHIMURIUM, Strain/Indicator: TA100, Metabolic Activation: RAT, LIVER, S-9, AROCLOR 1254 (10 OR 30%), Method: PREINCUBATION); “inactive; negative” (Test System: AMES SALMONELLA TYPHIMURIUM, Strain/Indicator: TA1535, Metabolic Activation: HAMSTER, LIVER, S-9, AROCLOR 1254 (10 OR 30%), Method: PREINCUBATION); “inactive; negative” under setting [4]; “inactive; negative” (Test System: AMES SALMONELLA TYPHIMURIUM, Strain/Indicator: TA1535, Metabolic Activation: RAT, LIVER, S-9, AROCLOR 1254 (10 OR 30%), Method: PREINCUBATION).
